In brackets after ≈: the same amount, converted by molar mass. Read-outs that look alike come from different tables or passages of the source.
Experiments:
helicobacter pylori [1] = assay: In vitro activity against helicobacter pylori (MIC), agar plate; format: cell-based; settings: for MIC: Helicobacter pylori, 72 h, read-out: minimum inhibitory concentration (MIC)
Experimental: In vitro activity against helicobacter pylon (MIC; μg/ml)
Helicobacter pylori (H. pylori) from storage was smeared on a 7%-equine-defibrinated-blood-added brain heart infusion agar (BHIA) plate and cultured at 37° C. for 72 hours under microaerophilic and wet conditions. The colonies thus grown were picked and suspended in physiological saline to prepare a culture solution of 10^8 CFU/ml (viable microbe cell number per ml). The resulting culture solution was diluted to 10 to 50-fold with physiological saline, and one spot (about 10 μl) of the solution was inoculated on each of medicament-containing and medicament-free BHIA plates. Each of the plates was cultured at 37° C. for 72 hours under microaerophilic and wet conditions and the minimum inhibitory concentration (MIC: μg/ml) at which the growth of the colonies was inhibited was measured.

helicobacter pylori [2] = settings: background, reported; cited from earlier work
[3] = tested on: helicobacter pylori 9470 strain; assay: Therapeutic effects for nude mouse infected with helicobacter pylori (viable microbe cell number, CFU/stomach); format: in vivo; settings: oral, once a day for 4 days, nude mice
Experimental: Therapeutic effects for nude mouse infected with helicobacter pylon Bacteria (helicobacter pylori 9470 strain) used for the test, which were cultured for 48 hours in a 2%-fetal-calf-serum-added brucella broth, were centrifuged. After removal of the supernatant, the residue was re-suspended in a 1/10 amount of a brucella broth. The resulting suspended solution was orally administered to each of three to five nude mice in an amount of […] per mouse. 10 days after the infection, administration of a medicament was started. A 0.5% tragacanth suspension of a medicament was orally administered for 4 days through an oral catheter at a dose of 0.3 ml/mouse, once a day. On the day after the final administration, the stomach was extirpated, homogenized and then diluted. […] The significant difference of Medicament B(2), Medicament C(1) or C(2) is p<0.01 (vs the control group).

[4] = H. pylori strain 9470, 37° C., 72 hours, microaerophilic, BHIA plate
[5] = H. pylori strain 9472, 37° C., 72 hours, microaerophilic, BHIA plate
[6] = H. pylori strain 9474, 37° C., 72 hours, microaerophilic, BHIA plate
[7] = H. pylori strain 9824, 37° C., 72 hours, microaerophilic, BHIA plate
[8] = H. pylori strain 9828, 37° C., 72 hours, microaerophilic, BHIA plate

SMILES: CC1(C)S[C@@H]2[C@H](NC(=O)[C@H](N)c3ccc(O)cc3)C(=O)N2[C@H]1C(=O)O [AMPC, amoxicillin]
- MIC (helicobacter pylori [1]; [4]): 12 ng/mL (≈ 0.0328 µM)
- MIC (helicobacter pylori [1]; [5]): 25 ng/mL (≈ 0.0684 µM)
- MIC (helicobacter pylori [1]; [6]): 50 ng/mL (≈ 0.137 µM)
- MIC (helicobacter pylori [1]; [7]): 390 ng/mL (≈ 1.07 µM)
- MIC (helicobacter pylori [1]; [8]): 200 ng/mL (≈ 0.547 µM)
- effect against helicobacter pylori (helicobacter pylori [2]): effective against helicobacter pylori

SMILES: CC[C@H]1OC(=O)[C@H](C)[C@@H](O[C@H]2C[C@@](C)(OC)[C@@H](O)[C@H](C)O2)[C@H](C)[C@@H](O[C@@H]2O[C@H](C)C[C@H](N(C)C)[C@H]2O)[C@](C)(OC)C[C@@H](C)C(=O)[C@H](C)[C@@H](O)[C@]1(C)O [CAM, clarithromycin]
- significant difference (p) vs the control group, viable microbe cell number (CFU/stomach) ([3]; 10 mg/kg): < 0.01
- MIC (helicobacter pylori [1]; [4]): 6 ng/mL (≈ 0.00802 µM)
- MIC (helicobacter pylori [1]; [5]): 6 ng/mL (≈ 0.00802 µM)
- MIC (helicobacter pylori [1]; [6]): 25 ng/mL (≈ 0.0334 µM)
- MIC (helicobacter pylori [1]; [7]): 1500 ng/mL (≈ 2.01 µM)
- MIC (helicobacter pylori [1]; [8]): 6250 ng/mL (≈ 8.36 µM)
- effect against helicobacter pylori (helicobacter pylori [2]): effective against helicobacter pylori

SMILES: C[C@@H](O)[C@H]1C(=O)N2C(C(=O)[O-])=C(S[C@H]3CNC(=O)C3)[C@H](C)[C@H]12.[Na+] [Compound 1, sodium (1R,5S,6S)-2-[(4R)-2-oxo-4pyrrolidinylthio]-6-[(1R)-1-hydroxyethyl]-1-methyl-1-carbapen-2-em-3-carboxylate]
- minimum inhibitory concentration (MIC) (helicobacter pylori [1]; [5]): ≤ 6 ng/mL
- minimum inhibitory concentration (MIC) (helicobacter pylori [1]; [6]): ≤ 6 ng/mL
- minimum inhibitory concentration (MIC) (helicobacter pylori [1]; [7]): ≤ 6 ng/mL
- minimum inhibitory concentration (MIC) (helicobacter pylori [1]; [8]): ≤ 6 ng/mL
- MIC (helicobacter pylori [1]): ≤ 6 ng/mL

SMILES: C[C@@H](O)[C@H]1C(=O)N2C(C(=O)O)=C(S[C@@H]3CC(=O)N(C)C3)[C@H](C)[C@H]12 [Compound 2]
- MIC (helicobacter pylori [1]; [4]): ≤ 0.6 ng/mL
- MIC (helicobacter pylori [1]; [5]): ≤ 6 ng/mL
- MIC (helicobacter pylori [1]; [7]): ≤ 6 ng/mL
- MIC (helicobacter pylori [1]; [8]): ≤ 6 ng/mL

SMILES: C[C@@H](O)[C@H]1C(=O)N2C(C(=O)[O-])=C(S[C@H]3CC(=O)N(C)C3)[C@H](C)[C@H]12.[Na+] [Compound 3, sodium (1R,5S,6S)-2-[(4S)-1-methyl-2-oxo-4-pyrrolidinylthio]-6-[(1R)-1-hydroxyethyl]-1-methyl-1-carbapen-2-em-3-carboxylate]
- minimum inhibitory concentration (MIC) (helicobacter pylori [1]; [5]): ≤ 6 ng/mL
- minimum inhibitory concentration (MIC) (helicobacter pylori [1]; [7]): ≤ 6 ng/mL
- minimum inhibitory concentration (MIC) (helicobacter pylori [1]; [8]): ≤ 6 ng/mL
- MIC (helicobacter pylori [1]): ≤ 6 ng/mL

SMILES: C[C@@H](O)[C@H]1C(=O)N2C(C(=O)OCOC(=O)C(C)(C)C)=C(S[C@H]3CNC(=O)C3)[C@H](C)[C@H]12 [Compound 4, pivaloyloxymethyl (1R,5S,6S)-2-[(4R)-2-oxo-4-pyrrolidinylthio]-6-[(1R)-1-hydroxyethyl]-1-methyl-1-carbapen-2-em-3-carboxylate]
- significant difference (p) vs the control group, viable microbe cell number (CFU/stomach) ([3]; 1 mg/kg): < 0.01
- significant difference (p) vs the control group, viable microbe cell number (CFU/stomach) ([3]; 10 mg/kg): < 0.01

SMILES: O=C([O-])CC(O)(CC(=O)[O-])C(=O)[O-].[Bi+3] [bismuth citrate]
- effect against helicobacter pylori (helicobacter pylori [2]): effective against helicobacter pylori

SMILES: Cc1ncc([N+](=O)[O-])n1CCO [metronidazole]
- effect against helicobacter pylori (helicobacter pylori [2]): effective against helicobacter pylori

SMILES: CN(C)C1C(=O)C(C(N)=O)=C(O)C2(O)C(=O)C3=C(O)c4c(O)cccc4C(C)(O)C3CC12 (stereo not shown) [tetracycline]
- effect against helicobacter pylori (helicobacter pylori [2]): effective against helicobacter pylori

Reference: patent publication US6180621A, “Method and treatment using 1-methylcarbapenem derivatives as an anti-helicobacter pylori agent” (Sankyo Company, Limited, priority 1996, dated 2001)
